Several values for one entry are separate records, joined by “and”; a condition that tells them apart may be missing. Equal entries are not always repeated. Inconclusive results and toxic doses are left out.
System: BDF1 mice, L1210 terephthalanilide-resistant leukemia ip, survival T/C
Assay: NCI In Vivo Anticancer Drug Screen. Data for tumor model L1210 Leukemia resistant to A Terephthalanilide; NSC 38280 (intraperitoneal) in B6D2F1 (BDF1) mice
Details: endpoint: mean survival time, higher = longer survival
Experimental: The antitumor activity of compounds was measured in mice bearing transplantable tumors. Survival or tumor size were measured and the results are expressed as the measurement made in the treated group (T) divided by the measurement made in the vehicle treated control group (C). The tumor model used in this assay is L1210 Leukemia resistant to A Terephthalanilide; NSC 38280 (intraperitoneal) in B6D2F1 (BDF1) mice

[1] = dose: 12.5 mg/kg/injection, schedule: Q01DX010 (ip), vehicle: saline
[2] = dose: 25.0 mg/kg/injection, schedule: Q01DX010 (ip), vehicle: saline
[3] = dose: 50.0 mg/kg/injection, schedule: Q01DX010 (ip), vehicle: saline
[4] = dose: 100.0 mg/kg/injection, schedule: Q01DX010 (ip), vehicle: saline
[5] = dose: 2.0 mg/kg/injection, schedule: Q01DX010 (ip), vehicle: saline
[6] = dose: 4.0 mg/kg/injection, schedule: Q01DX010 (ip), vehicle: saline
[7] = dose: 5.0 mg/kg/injection, schedule: Q01DX Z (ip), vehicle: carboxymethylcellulose (CMC)
[8] = dose: 8.0 mg/kg/injection, schedule: Q01DX010 (ip), vehicle: saline

## O=C(Nc1ccc(C2=NCCN2)cc1)Nc1cccc(NC(=O)Nc2ccc(C3=NCCN3)cc2)c1
dose: 60.0 mg/kg/injection, schedule: Q01DX010 (ip), vehicle: saline
  T/C: 96 % of control and 110 % of control
dose: 120.0 mg/kg/injection, schedule: Q01DX010 (ip), vehicle: saline
  T/C: 92 % of control and 116 % of control
dose: 240.0 mg/kg/injection, schedule: Q01DX010 (ip), vehicle: saline
  T/C: 96 % of control and 100 % of control
dose: 480.0 mg/kg/injection, schedule: Q01DX010 (ip), vehicle: saline
  T/C: 86 % of control and 87 % of control

## CS(=O)(=O)OCCC(=O)N1CCN(C(=O)CCOS(C)(=O)=O)CC1
[1]
  T/C: 106 % of control and 109 % of control
[2]
  T/C: 120 % of control
[3]
  T/C: 107 % of control
[4]
  T/C: 120 % of control

## Nc1nc(N)c2nc(CNc3ccc(C(=O)NC(CCC(=O)O)C(=O)O)cc3)cnc2n1 (configuration not stated)
dose: 0.03 mg/kg/injection, schedule: Q01DX010 (ip), vehicle: other
  T/C: 99 % of control and 109 % of control
dose: 0.05 mg/kg/injection, schedule: Q01DX010 (ip), vehicle: other
  T/C: 123 % of control and 101 % of control
dose: 0.1 mg/kg/injection, schedule: Q01DX010 (ip), vehicle: other
  T/C: 122 % of control and 124 % of control

## CCCNc1ncnc2[nH]ncc12
dose: 3.13 mg/kg/injection, schedule: Q01DX010 (ip), vehicle: saline
  T/C: 92 % of control and 103 % of control
dose: 6.25 mg/kg/injection, schedule: Q01DX010 (ip), vehicle: saline
  T/C: 96 % of control and 108 % of control
[1]
  T/C: 95 % of control and 101 % of control
dose: 12.5 mg/kg/injection, schedule: Q01DX Z (ip), vehicle: saline
  T/C: 115 % of control
[2]
  T/C: 92 % of control and 106 % of control
dose: 50.0 mg/kg/injection, schedule: Q01DX Z (ip), vehicle: saline
  T/C: 93 % of control

## Nc1nc(=S)c2ncn(C3OC(CO)C(O)C3O)c2[nH]1 (configuration not stated)
dose: 0.13 mg/kg/injection, schedule: Q01DX Z (ip), vehicle: carboxymethylcellulose (CMC)
  T/C: 117 % of control
dose: 0.3 mg/kg/injection, schedule: Q01DX Z (ip), vehicle: carboxymethylcellulose (CMC)
  T/C: 120 % of control
dose: 1.25 mg/kg/injection, schedule: Q01DX Z (ip), vehicle: carboxymethylcellulose (CMC)
  T/C: 182 % of control
[5]
  T/C: 157 % of control and 179 % of control
dose: 2.5 mg/kg/injection, schedule: Q01DX Z (ip), vehicle: carboxymethylcellulose (CMC)
  T/C: 151 % of control
[6]
  T/C: 86 % of control and 110 % of control
[7]
  T/C: 155 % of control
[8]
  T/C: 98 % of control
dose: 15.0 mg/kg/injection, schedule: Q01DX Z (ip), vehicle: carboxymethylcellulose (CMC)
  T/C: 111 % of control
dose: 20.0 mg/kg/injection, schedule: Q01DX Z (ip), vehicle: carboxymethylcellulose (CMC)
  T/C: 102 % of control

## O=CCC(O)C(O)C(O)CO (configuration not stated)
dose: 62.5 mg/kg/injection, schedule: Q01DX010 (ip), vehicle: saline
  T/C: 96 % of control and 104 % of control
dose: 62.5 mg/kg/injection, schedule: Q01DX Z (ip), vehicle: saline
  T/C: 112 % of control
dose: 125.0 mg/kg/injection, schedule: Q01DX010 (ip), vehicle: saline
  T/C: 113 % of control
dose: 125.0 mg/kg/injection, schedule: Q01DX Z (ip), vehicle: saline
  T/C: 108 % of control
dose: 250.0 mg/kg/injection, schedule: Q01DX010 (ip), vehicle: saline
  T/C: 105 % of control and 113 % of control
dose: 250.0 mg/kg/injection, schedule: Q01DX Z (ip), vehicle: saline
  T/C: 108 % of control
dose: 500.0 mg/kg/injection, schedule: Q01DX010 (ip), vehicle: saline
  T/C: 116 % of control and 118 % of control
dose: 500.0 mg/kg/injection, schedule: Q01DX Z (ip), vehicle: saline
  T/C: 116 % of control

## CN(C)c1ccc(/C=C\c2ccnc3ccccc23)cc1
dose: 5.0 mg/kg/injection, schedule: Q01DX010 (ip), vehicle: saline
  T/C: 98 % of control
[8]
  T/C: 100 % of control
dose: 12.0 mg/kg/injection, schedule: Q01DX010 (ip), vehicle: saline
  T/C: 100 % of control
dose: 18.0 mg/kg/injection, schedule: Q01DX010 (ip), vehicle: saline
  T/C: 92 % of control and 95 % of control
dose: 18.75 mg/kg/injection, schedule: Q01DX Z (ip), vehicle: carboxymethylcellulose (CMC)
  T/C: 101 % of control
dose: 27.0 mg/kg/injection, schedule: Q01DX010 (ip), vehicle: saline
  T/C: 89 % of control
dose: 37.5 mg/kg/injection, schedule: Q01DX Z (ip), vehicle: carboxymethylcellulose (CMC)
  T/C: 95 % of control
dose: 50.0 mg/kg/injection, schedule: Q01DX Z (ip), vehicle: carboxymethylcellulose (CMC)
  T/C: 90 % of control

## CCN(CC)CCNc1ccc(C)c2sc3ccccc3c(=O)c12
[2]
  T/C: 101 % of control and 105 % of control
dose: 25.0 mg/kg/injection, schedule: Q01DX Z (ip), vehicle: water
  T/C: 111 % of control
[3]
  T/C: 105 % of control and 111 % of control
[4]
  T/C: 111 % of control
dose: 100.0 mg/kg/injection, schedule: Q01DX Z (ip), vehicle: water
  T/C: 115 % of control

## C=C1C[C@H]2[C@@H]3C=C(C)C4=CC(=O)CC[C@]4(C)[C@H]3CC[C@]2(C)[C@@]1(OC(C)=O)C(C)=O
dose: 62.5 mg/kg/injection, schedule: Q01DX010 (sc), vehicle: steriod suspending solution
  T/C: 101 % of control
dose: 125.0 mg/kg/injection, schedule: Q01DX010 (sc), vehicle: steriod suspending solution
  T/C: 93 % of control
dose: 250.0 mg/kg/injection, schedule: Q01DX010 (sc), vehicle: steriod suspending solution
  T/C: 97 % of control
dose: 500.0 mg/kg/injection, schedule: Q01DX010 (sc), vehicle: steriod suspending solution
  T/C: 95 % of control

## O=C(O)CCCc1ccc(N(CCCl)CCCl)cc1
dose: 2.0 mg/kg/injection, schedule: Q01DX Z (ip), vehicle: carboxymethylcellulose (CMC)
  T/C: 101 % of control
dose: 3.0 mg/kg/injection, schedule: Q01DX Z (ip), vehicle: carboxymethylcellulose (CMC)
  T/C: 106 % of control
dose: 4.0 mg/kg/injection, schedule: Q01DX Z (ip), vehicle: carboxymethylcellulose (CMC)
  T/C: 112 % of control
[7]
  T/C: 119 % of control
dose: 6.25 mg/kg/injection, schedule: Q01DX Z (ip), vehicle: carboxymethylcellulose (CMC)
  T/C: 115 % of control
dose: 12.5 mg/kg/injection, schedule: Q01DX Z (ip), vehicle: carboxymethylcellulose (CMC)
  T/C: 118 % of control

## CN(C)c1nc(N(C)C)nc(N(C)C)n1
dose: 18.8 mg/kg/injection, schedule: Q01DX010 (ip), vehicle: saline
  T/C: 94 % of control and 95 % of control
dose: 37.5 mg/kg/injection, schedule: Q01DX010 (ip), vehicle: saline
  T/C: 94 % of control and 100 % of control
dose: 75.0 mg/kg/injection, schedule: Q01DX010 (ip), vehicle: saline
  T/C: 94 % of control and 99 % of control
dose: 87.5 mg/kg/injection, schedule: Q01DX Z (ip), vehicle: other
  T/C: 110 % of control
dose: 150.0 mg/kg/injection, schedule: Q01DX010 (ip), vehicle: saline
  T/C: 96 % of control and 99 % of control
dose: 175.0 mg/kg/injection, schedule: Q01DX Z (ip), vehicle: other
  T/C: 119 % of control

## NC(Cc1c[nH]c2ccc(N(CCCl)CCCl)cc12)C(=O)O (configuration not stated)
dose: 0.5 mg/kg/injection, schedule: Q01DX010 (ip), vehicle: saline
  T/C: 117 % of control
dose: 1.0 mg/kg/injection, schedule: Q01DX010 (ip), vehicle: saline
  T/C: 108 % of control
[5]
  T/C: 120 % of control
[6]
  T/C: 233 % of control

## Nc1nc(F)nc2c1ncn2C1OC(CO)C(O)C1O (configuration not stated)
dose: 0.75 mg/kg/injection, schedule: Q01DX Z (ip), vehicle: saline
  T/C: 111 % of control
dose: 1.5 mg/kg/injection, schedule: Q01DX Z (ip), vehicle: saline
  T/C: 108 % of control
dose: 3.0 mg/kg/injection, schedule: Q01DX Z (ip), vehicle: saline
  T/C: 114 % of control
dose: 6.0 mg/kg/injection, schedule: Q01DX Z (ip), vehicle: saline
  T/C: 101 % of control
